Measured values from US20180055816A1, “PYRANONAPHTHOQUINONE COMPOUNDS AND METHODS OF USE THEREOF” (University of Kentucky Research Foundation, priority 2016, published 2018).
pIC50: −log10 of the molar value. Entries after “also recorded” stand apart in the source; their conditions may differ.

Experiments:
S6 phosphorylation = S6 phosphorylation in HCT116 cells (Western blot); type: cell-based, human; details: HCT116, 12 h; 2 μM FB or UCF76-A, 100 nM rapamycin, 0.5 μM AZD8055
Experimental: (§1) HCT116 cells were treated with 1 μM MK2206 and 100 nM PD0325901 alone and in combination, 100 nM rapamycin, 0.5 μM AZD8055, 2 μM UCF76-A or 2 μM FB for 12 h followed by Western blot analysis for the indicated proteins.
(§2) Cells were lysed in NP-40 lysis buffer (50 mM Tris-HCl, pH 7.5, 150 mM NaCl, 1 mM EDTA, 1% NP-40, 10% glycerol, protease and phosphatase inhibitor cocktail). Western blot analysis were performed using equivalent total protein loadings as described previously. For immunoprecipitation, the cell lysates were incubated with the indicated antibody overnight followed by incubation with a 50% slurry of protein G sepharose beads for 3 h at 4° C. The beads were washed three times with the lysis buffer, and the immunoprecipitated protein complexes were resuspended in 2× Laemmli sample buffer followed by western blot analysis.

AKT phosphorylation = AKT phosphorylation in HCT116 cells (Western blot); type: cell-based, human; details: HCT116, 12 h; 2 μM FB or UCF76-A, 0.5 μM AZD8055, 1 μM MK2206
Experimental: as §1, §2

p70S6K phosphorylation = p70S6K phosphorylation in HCT116 cells (Western blot); type: cell-based, human; details: HCT116, 12 h; 2 μM FB or UCF76-A, 100 nM rapamycin, 0.5 μM AZD8055
Experimental: as §1, §2

4E-BP1 phosphorylation [1] = assay: Inhibition of 4E-BP1 phosphorylation in HCT116 cells (Western blot); type: cell-based, human; details: for inhibition of 4E-BP1 phosphorylation: 12 h
Experimental: (§3) Compounds that pass this single dose filter are then tested in a CRC (HCT116) in vitro cytotoxicity assay and, in parallel, an in vitro assay to assess propensity for intracellular reactive oxygen species (ROS) production using the redox sensitive probe CeIIROX® Deep Red reagent (Invitrogen) by flow cytometry analysis (47).
as §2

[2] = test system: cap-dependent translation; assay: Cap-dependent translation bicistronic luciferase reporter assay in HCT116 cells; type: cell-based, human; details: 12 h
Prx1 = target: T1, Prx1 (Homo sapiens, UniProt Q06830); assay: Prx1 catalytic activity inhibition; type: biochemical; details: recombinant Prx1, 1 hour incubation
T1 sequence (Q06830 1-199): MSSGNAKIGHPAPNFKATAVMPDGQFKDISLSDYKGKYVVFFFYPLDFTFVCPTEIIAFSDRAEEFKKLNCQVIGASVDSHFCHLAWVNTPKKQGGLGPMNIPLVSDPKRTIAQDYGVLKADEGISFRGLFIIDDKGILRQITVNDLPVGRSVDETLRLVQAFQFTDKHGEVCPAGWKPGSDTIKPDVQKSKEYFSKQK
Experimental: The recombinant Prx1 protein was incubated with the indicated concentration of FB, 12, or conoidin A for 1 hour. Data are presented as mean±s.e.m. (n=3 technical replicates per condition). […]. Statistical significance was determined by the Student's t-test.
Prx1 and Grx3 are antioxidant enzymes known to regulate oxidative stress. Prx1 catalyzes peroxide reduction of H2O2, whereas Grx3 functions as glutathione (GSH)-dependent oxidoreductase by participating in the conversion of reduced GSH to oxidized glutathione disulfide (GSSG). […] While Grx3 biochemical assays are lacking, FB and active analogs could lead to a decrease in GSH levels and an increase in GSSG levels in HCT116 cells (FIGS. 23A-B). As antioxidant enzymes utilize cysteine-containing active sites to reduce various cellular peroxide or disulfide substrates, the role of Prx1/Grx3 cysteines in FB ligand-binding was assessed through replacing their cysteines to alanines. […] Finally, mass spectrometry analysis confirmed the covalent modification of Prx1 and Grx3 by FB at these specific target sites. These cumulative studies provide strong validation of Prx1 and Grx3 as the predominate molecular targets of PNQs in cancer cells.

HCT116 cells [3] = assay: Apoptosis assay (propidium iodide/Annexin V flow cytometry) in HCT116 cells; type: cell-based, human; details: HCT116, 72 hours
Experimental: (A) HCT116 cells were treated with different concentrations of FB and 12 for 12 hours. Cell lysates were precipitated with m^7GTP sepharose beads followed by Western blot analysis for the indicated proteins. (B) Inhibition of cap-dependent translation activity in HCT116 cells that were treated with the indicated compounds or DMSO as control for 12 hours was determined and analyzed as in FIG. 10A. (C) and (D) HCT116 cells were treated with different concentrations of FB and 12 for 72 hours. Apoptotic cells were analyzed by propidium iodide/Annexin V staining and flow cytometry (C). The results are expressed as the increased levels of apoptosis (D) by subtracting each of the DMSO-treated controls. All graphic data are presented as mean±s.e.m. (n=3 technical replicates per condition). *P<0.001 for 12 versus FB. Statistical significance was determined by the Student's t-test.
(§4) Cell growth was assessed as described previously. Briefly, 5×10^4 cells were seeded in 6-well plates in triplicates. After 24 h, cells were treated with the indicated compounds and incubated at 37° C. The cells were cultured for 3 days and the number of viable cells was counted using the Vi-CELL XR 2.03 (Beckman Coulter, Brea, Calif.). For apoptosis, cells were analyzed by flow cytometry using the Annexin V-FITC Apoptosis Detection Kit according to the manufacturer's protocol (BD Biosciences, San Jose, Calif.).

HCT116 xenograft tumors = assay: HCT116 colon cancer xenograft in nude mice; type: in vivo; details: 14 mg/kg intraperitoneal, daily five days a week, 2 weeks
Experimental: (§5) Male athymic nude mice (5-6 weeks old) were purchased from Taconic (Hudson, N.Y., USA). Experiments were carried out under a protocol approved by the University of Kentucky Institutional Animal Care and Use Committee. HCT116 and DLD-1 xenograft tumors were established by subcutaneously injecting 3×10^6 cells in a 1:1 mixture of media and Matrigel (BD Biosciences) into the right flank. For efficacy studies, mice were randomized among control and treated groups (n=8 per group) when tumors were well-established (˜120 mm^3). Compound 14 was prepared freshly in saline and administered by intraperitoneal injection at 14 mg/kg once per day, Mon-Fri per week. Control mice received saline solution. Tumor dimensions were measured using a caliper and tumor volumes were calculated as mm^3=π/6× larger diameter×(smaller diameter)^2. Tumors were excised and snap frozen in liquid nitrogen, homogenized in 2% SDS lysis buffer and then processed for Western blot analysis as described previously^5.

DLD-1 xenograft tumors = assay: DLD-1 colon cancer xenograft in nude mice; type: in vivo; details: 14 mg/kg intraperitoneal, daily five days a week, 2 weeks
Experimental: as §5

[4] = Tolerability in tumor-bearing nude mice (body weight, maximum tolerated dose); type: in vivo
Experimental: Mice bearing HCT116 or DLD-1 CRC xenograft tumors were treated with compound 14 at 14 mg/kg or with vehicle control once per day for 5 consecutive days each week. The mouse body weight was measured twice per week in control and treated groups using a weighing scale. The results represent the mean body weight±s.e.m. (n=8 mice/group). *P>0.05 for 14 versus vehicle control in HCT116 or DLD-1 xenograft tumors. Statistical significance was determined by the Student's t-test.
as §5, with “Tumors were excised and snap frozen in liquid nitrogen, homogenized in 2% SDS lysis buffer and then processed for Western blot analysis as described previously^5.” left out

4E-BP1 phosphorylation [5] = assay: Western blot of xenograft tumor extracts; type: in vivo, mice; details: HCT116 or DLD-1 xenograft tumors, 6 h after the final treatment, 14 mg/kg
Experimental: FIGS. 34A-B. FB induces ROS production to repress 4E-BP1 phosphorylation and tumor growth in vivo. (A) Western blot analysis of representative tumors collected from mice in FIG. 32 6 h after the final treatment with 14 or vehicle control. (B) A proposed model for the anticancer mechanism of FB through targeting Prx1/Grx3 to induce ROS accumulation leading to inhibition of mTORC1/4E-BP1-mediated tarnaltion.
as §5

HCT116 cells [6] = assay: Cell growth / cytotoxicity in HCT116 cells; type: cell-based, human; details: Homo sapiens, HCT-116; colorectal cancer cell line HCT116
Experimental: as §3, §4

[7] = test system: intracellular reactive oxygen species (ROS); assay: Intracellular ROS production, CellROX Deep Red flow cytometry, HCT116 cells; type: cell-based, human
Experimental: as §3
The ROS production was determined using the CellROX Deep Red Flow Cytometry Assay Kit according to the manufacturer's protocol (Life Technologies). Briefly, cells were treated with 2 μM of the indicated compounds or DMSO as control for 1 h. After treatment, cells were incubated with 0.5 μM of CellROX Deep Red reagent for 1 h at 37° C., washed twice with PBS and immediately analyzed by a FACScan flow cytometer. For the measurement of cellular H2O2 level, cells were treated with 2 μM of the indicated compounds for 5 h.

For COc1ccc(-c2ccc3c(N4CCOC[C@@H]4C)nc(N4CCOC[C@@H]4C)nc3n2)cc1CO [AZD8055], the “inhibition of S6 phosphorylation” value (S6 phosphorylation) was “potently inhibited”, the “inhibition of AKT phosphorylation” value (AKT phosphorylation) was “inhibited” and the “inhibition of p70S6K phosphorylation” value (p70S6K phosphorylation) was “potently inhibited”.

For O=C1C[C@H]2O[C@@H](CCC(F)(F)F)C3=C(C(=O)c4c(Cl)ccc(O)c4C3=O)[C@H]2O1 [Compound 12, (3aR,5S,11bR)-10-Chloro-7-hydroxy-5-(3,3,3-trifluoropropyl)-3,3a,5,11b-tetrahydro-2H-benzo[g]furo[3,2-c]isochromene-2,6,11-trione], the “fold more potent than FB as an inhibitor of 4E-BP1 phosphorylation” value (4E-BP1 phosphorylation [1]; relative to FB) was “up to 4 fold”, the “inhibition of cap-dependent translation” value [2] was “more potent that FB” and the “inhibition of Prx1 catalytic activity” value (Prx1) was “potently inhibit”. For the same molecule, the “induction of apoptosis compared with FB” value (HCT116 cells [3]) was “more potent that FB”.

With O=C1C[C@H]2O[C@@H](CCC(F)(F)F)C3=C(C(=O)c4c(Cl)ccc(OP(=O)(O)O)c4C3=O)[C@H]2O1 [Compound 14, (3aR,5S,11bR)-10-Chloro-2,6,11-trioxo-5-(3,3,3-trifluoropropyl)-3,3a,5,6,11,11b-hexahydro-2H-benzo[g]furo[3,2-c]isochromen-7-yl dihydrogen phosphate] the tumor reduction (HCT116 xenograft tumors) was 64%, the tumor reduction (DLD-1 xenograft tumors) was 56% and the body weight loss ([4]; 14 mg/kg once per day, 5 days each week, HCT116 or DLD-1 xenograft mice) was “without significant weight loss; also recorded: does not cause significant weight loss”. The MTD ([4]; male, athymic nude, mouse, in vivo, intraperitoneal, 14 mg/kg, nude mice) was 14 mg/kg, the “4E-BP1 phosphorylation in tumor extracts” value (4E-BP1 phosphorylation [5]) was “inhibition of 4E-BP1 phosphorylation” and the aqueous solubility (Aqueous solubility) was “aqueous soluble”.

With C[C@@H]1CC(=O)[C@@H](O)[C@]2(O1)O[C@@H]1CC(=O)O[C@@H]1C1=C2C(=O)c2c(O)cccc2C1=O [GC, griseusen C] the pIC50 (HCT116 cells [6]) was 6.90, the “inhibition of 4E-BP1 phosphorylation” value (4E-BP1 phosphorylation [1]) was “notable inhibition” and the “ROS production compared with b47” value [7] was “slightly lower”.

With NC1(c2ccc(-c3nc4ccn5c(=O)[nH]nc5c4cc3-c3ccccc3)cc2)CCC1 [MK2206] the “inhibition of 4E-BP1 phosphorylation” value (4E-BP1 phosphorylation [1]) was “negligible modulation” and the “inhibition of AKT phosphorylation” value (AKT phosphorylation) was “effective inhibition”.
